This is an account of results in ChEMBL document CHEMBL1201862, “PubChem BioAssay data set” (2004).

Structures are written as SMILES. The source made the active and inactive calls.

Assay [1] has as its system CHO. Nature of the assay: cytotoxicity in TLR9-MyD88 CHO cells, dose response, cytotoxicity control for TLR9-MyD88 binding inhibitor project, cell-based, luminescence (AID 588339).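 Further: CHO cells stably coexpressing TLR9 and MyD88 fusions from primary screen; compound exposure lasted 48 hours before viability readout.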 The format is functional, hamster. The note with it: Cricetulus griseus.
Assay [2] addresses Beta Lactamase (Pseudomonas aeruginosa, UniProt Q932Y6). Nature of the assay: beta-lactamase reporter inhibitor potency, dose response, artefact control for TLR9-MyD88 binding inhibitor project, BLA reporter cells, FRET fluorescence (AID 588341).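 Further: cell based assay in CHO-K1 cells stably expressing beta-lactamase.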 The format is cell-based.
The target in assay [3] is T1, Sentrin-specific protease 6 (Homo sapiens, UniProt Q9GZR1).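 Further: Luminescence-based dose-response confirmatory assay of SENP6 inhibition, following up an ultra-high-throughput screen.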
T1 sequence (Q9GZR1 whole entry): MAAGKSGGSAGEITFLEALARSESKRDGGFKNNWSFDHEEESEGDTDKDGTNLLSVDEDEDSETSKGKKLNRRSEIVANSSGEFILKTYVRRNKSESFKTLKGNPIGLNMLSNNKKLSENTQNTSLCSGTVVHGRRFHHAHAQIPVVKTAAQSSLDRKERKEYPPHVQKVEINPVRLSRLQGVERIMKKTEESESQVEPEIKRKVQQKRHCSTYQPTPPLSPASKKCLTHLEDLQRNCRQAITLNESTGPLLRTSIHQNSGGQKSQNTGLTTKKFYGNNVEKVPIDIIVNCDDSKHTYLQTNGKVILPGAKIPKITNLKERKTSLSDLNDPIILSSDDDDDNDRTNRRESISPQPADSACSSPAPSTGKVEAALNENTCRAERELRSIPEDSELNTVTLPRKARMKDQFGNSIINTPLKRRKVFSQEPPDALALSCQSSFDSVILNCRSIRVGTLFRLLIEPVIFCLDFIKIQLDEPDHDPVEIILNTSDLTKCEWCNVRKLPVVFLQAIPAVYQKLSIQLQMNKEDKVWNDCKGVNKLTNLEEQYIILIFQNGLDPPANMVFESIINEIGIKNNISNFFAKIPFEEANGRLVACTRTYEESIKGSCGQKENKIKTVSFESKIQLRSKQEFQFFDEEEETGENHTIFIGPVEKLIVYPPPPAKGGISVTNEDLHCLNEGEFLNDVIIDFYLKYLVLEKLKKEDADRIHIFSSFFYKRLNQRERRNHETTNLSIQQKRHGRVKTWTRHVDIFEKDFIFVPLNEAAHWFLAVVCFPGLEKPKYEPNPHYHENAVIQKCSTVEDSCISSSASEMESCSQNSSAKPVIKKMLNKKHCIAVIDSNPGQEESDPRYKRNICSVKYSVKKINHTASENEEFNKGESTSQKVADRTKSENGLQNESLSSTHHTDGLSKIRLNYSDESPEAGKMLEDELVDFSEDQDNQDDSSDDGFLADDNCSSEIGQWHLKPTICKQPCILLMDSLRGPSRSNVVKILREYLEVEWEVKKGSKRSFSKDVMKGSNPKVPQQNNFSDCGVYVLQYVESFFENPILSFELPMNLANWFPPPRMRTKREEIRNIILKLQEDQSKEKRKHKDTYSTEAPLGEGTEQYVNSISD
The format is functional.

The target of assay [4] is T2, Caspase-3 (Homo sapiens, UniProt P42574).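 Further: Dose-response selectivity test against caspase-3 for candidate inhibitors of sentrin-specific proteases (SENPs).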
T2 sequence (P42574 whole entry): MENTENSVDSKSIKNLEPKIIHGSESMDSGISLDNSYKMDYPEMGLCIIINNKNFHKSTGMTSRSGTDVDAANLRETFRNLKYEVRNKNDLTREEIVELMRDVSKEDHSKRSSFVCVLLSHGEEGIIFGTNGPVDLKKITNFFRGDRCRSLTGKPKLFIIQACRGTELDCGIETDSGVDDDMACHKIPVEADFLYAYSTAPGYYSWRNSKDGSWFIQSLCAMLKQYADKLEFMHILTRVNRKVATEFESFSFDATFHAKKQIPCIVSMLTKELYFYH
The format is functional.

For assay [5], the target named is T3, Sentrin-specific protease 7 (Homo sapiens, UniProt Q9BQF6).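 Further: Luminescence-based dose-response confirmation of ultra-high-throughput screening hits, measuring inhibition of SENP7.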
T3 sequence (Q9BQF6 whole entry): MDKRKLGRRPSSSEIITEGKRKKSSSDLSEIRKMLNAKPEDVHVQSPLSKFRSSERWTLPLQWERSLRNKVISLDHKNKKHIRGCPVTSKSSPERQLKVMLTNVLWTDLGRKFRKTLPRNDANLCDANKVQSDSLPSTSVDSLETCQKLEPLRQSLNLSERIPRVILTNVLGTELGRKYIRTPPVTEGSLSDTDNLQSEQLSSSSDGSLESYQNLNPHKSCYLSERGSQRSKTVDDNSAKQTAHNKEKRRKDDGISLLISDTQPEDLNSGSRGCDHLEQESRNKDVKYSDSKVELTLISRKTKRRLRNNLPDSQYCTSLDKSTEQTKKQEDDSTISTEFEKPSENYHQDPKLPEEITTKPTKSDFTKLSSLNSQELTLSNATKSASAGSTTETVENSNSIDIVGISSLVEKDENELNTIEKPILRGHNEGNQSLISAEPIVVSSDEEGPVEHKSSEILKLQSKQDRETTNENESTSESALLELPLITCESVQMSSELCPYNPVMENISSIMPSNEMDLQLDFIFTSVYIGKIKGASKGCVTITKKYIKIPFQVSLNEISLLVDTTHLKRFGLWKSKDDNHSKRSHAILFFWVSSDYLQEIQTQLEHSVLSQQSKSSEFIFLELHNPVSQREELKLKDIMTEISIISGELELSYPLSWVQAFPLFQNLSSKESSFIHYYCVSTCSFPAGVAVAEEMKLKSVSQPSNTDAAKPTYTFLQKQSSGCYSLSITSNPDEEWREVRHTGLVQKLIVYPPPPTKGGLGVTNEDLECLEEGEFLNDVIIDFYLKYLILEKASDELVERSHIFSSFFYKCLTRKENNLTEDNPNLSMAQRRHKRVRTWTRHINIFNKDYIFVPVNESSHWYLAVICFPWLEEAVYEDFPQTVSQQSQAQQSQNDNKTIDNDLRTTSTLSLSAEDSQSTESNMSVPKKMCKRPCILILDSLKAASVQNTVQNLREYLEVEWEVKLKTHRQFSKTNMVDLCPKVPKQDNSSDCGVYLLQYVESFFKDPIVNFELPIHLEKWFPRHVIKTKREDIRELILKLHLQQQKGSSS
The format is functional.

The target in assay [6] is T4, Sentrin-specific protease 8 (Homo sapiens, UniProt Q96LD8).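 Further: luminescence read-out of SENP8 inhibition, dose-response confirmation following an ultra-high-throughput screen.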
T4 sequence (Q96LD8 whole entry): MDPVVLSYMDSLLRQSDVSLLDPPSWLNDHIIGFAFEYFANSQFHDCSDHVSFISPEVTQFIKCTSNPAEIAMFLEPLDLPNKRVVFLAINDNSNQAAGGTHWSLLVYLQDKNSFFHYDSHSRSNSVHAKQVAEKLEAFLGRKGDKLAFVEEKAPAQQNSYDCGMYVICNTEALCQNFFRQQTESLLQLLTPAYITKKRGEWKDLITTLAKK
The format is functional.

For assay [7], the target named is T5, Endoribonuclease toxin MazF (Escherichia coli K-12, UniProt P0AE70).
T5 sequence (P0AE70 whole entry): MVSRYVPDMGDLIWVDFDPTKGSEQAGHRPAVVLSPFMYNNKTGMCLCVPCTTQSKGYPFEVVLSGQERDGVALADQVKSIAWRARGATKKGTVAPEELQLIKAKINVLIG
Description: fluorescent RNA oligo signal without MazF, dose response, counter-screen for MazEF activator project, biochemical, fluorescence, single-stranded RNase substrate (AID 588502). The format is functional. (In general: The purpose of a counterscreen is to sort out artefacts and off-target activity.)

In assay [8] the target is T5, Endoribonuclease toxin MazF. Description: MazF toxin RNase activators, dose response, biochemical, fluorescence, single-stranded RNA substrate, uHTS hits (AID 588481). The format is functional.
The target in assay [9] is T6, Zinc finger protein mex-5 (Caenorhabditis elegans, UniProt Q9XUB2).
T6 sequence (Q9XUB2 whole entry): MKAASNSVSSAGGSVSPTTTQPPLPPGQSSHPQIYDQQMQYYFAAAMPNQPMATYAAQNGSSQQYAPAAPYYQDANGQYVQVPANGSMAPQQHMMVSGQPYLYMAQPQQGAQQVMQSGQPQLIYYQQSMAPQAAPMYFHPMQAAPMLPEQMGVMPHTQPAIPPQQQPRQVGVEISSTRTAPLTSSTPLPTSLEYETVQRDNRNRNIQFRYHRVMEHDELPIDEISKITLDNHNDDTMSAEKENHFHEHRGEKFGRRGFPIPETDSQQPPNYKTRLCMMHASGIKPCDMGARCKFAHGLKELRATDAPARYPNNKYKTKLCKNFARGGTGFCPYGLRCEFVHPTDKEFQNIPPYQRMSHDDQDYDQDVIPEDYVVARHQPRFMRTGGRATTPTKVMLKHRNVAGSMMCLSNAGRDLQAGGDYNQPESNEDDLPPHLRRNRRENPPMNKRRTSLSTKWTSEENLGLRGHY
Nature of the assay: MEX-5/TCR-2 RNA interaction inhibitors, dose response, biochemical, C. elegans, fluorescence polarization (AID 1960).

For assay [10], the target named is T7, RNA-binding protein pos-1 (Caenorhabditis elegans, UniProt G5EF15).
T7 sequence (G5EF15 whole entry): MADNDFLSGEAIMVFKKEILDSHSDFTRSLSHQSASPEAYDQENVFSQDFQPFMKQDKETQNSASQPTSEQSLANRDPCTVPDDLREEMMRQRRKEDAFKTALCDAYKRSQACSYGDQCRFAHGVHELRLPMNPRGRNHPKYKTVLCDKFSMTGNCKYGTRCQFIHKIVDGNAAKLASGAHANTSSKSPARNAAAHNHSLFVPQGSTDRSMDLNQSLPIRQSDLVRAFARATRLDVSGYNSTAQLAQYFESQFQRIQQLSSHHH
Nature of the assay: inhibitors of POS-1/mex-3 RNA binding, dose response, biochemical, fluorescence polarization (AID 1964).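 Further: purified POS-1 fused to maltose binding protein made in E. coli; potency of compounds blocking POS-1 binding to fluorescent RNA.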

For assay [11], the target named is T8, Corticotropin-releasing factor receptor 2/Corticotropin-releasing factor-binding protein (Homo sapiens, UniProt P24387+Q13324).
T8 sequence (Q13324 whole entry): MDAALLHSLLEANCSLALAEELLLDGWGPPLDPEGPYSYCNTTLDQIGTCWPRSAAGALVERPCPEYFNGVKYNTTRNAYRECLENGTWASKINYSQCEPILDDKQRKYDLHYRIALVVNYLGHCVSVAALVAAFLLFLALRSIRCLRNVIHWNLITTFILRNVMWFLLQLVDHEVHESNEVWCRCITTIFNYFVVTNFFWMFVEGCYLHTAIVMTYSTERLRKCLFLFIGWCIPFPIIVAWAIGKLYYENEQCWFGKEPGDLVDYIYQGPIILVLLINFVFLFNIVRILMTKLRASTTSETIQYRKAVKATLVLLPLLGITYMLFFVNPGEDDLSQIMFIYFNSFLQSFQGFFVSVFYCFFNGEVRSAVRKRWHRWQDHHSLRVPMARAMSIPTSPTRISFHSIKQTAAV
T8 sequence (P24387 whole entry): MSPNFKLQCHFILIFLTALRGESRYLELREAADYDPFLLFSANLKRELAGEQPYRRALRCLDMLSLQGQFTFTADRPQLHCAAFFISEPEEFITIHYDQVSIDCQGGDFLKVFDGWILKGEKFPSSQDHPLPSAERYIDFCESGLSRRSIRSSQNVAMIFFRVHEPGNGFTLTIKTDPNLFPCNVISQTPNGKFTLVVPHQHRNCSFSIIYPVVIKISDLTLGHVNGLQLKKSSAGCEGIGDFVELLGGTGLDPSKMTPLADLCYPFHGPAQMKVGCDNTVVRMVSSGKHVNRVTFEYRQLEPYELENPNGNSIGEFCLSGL
Nature of the assay: activators of CRF receptor 2 with binding protein – uHTS hits, confirmation (AID 602473). The note with it: read-out: EC50_Mean. The format is functional.

Chain of Beta Lactamase (Q932Y6 whole entry): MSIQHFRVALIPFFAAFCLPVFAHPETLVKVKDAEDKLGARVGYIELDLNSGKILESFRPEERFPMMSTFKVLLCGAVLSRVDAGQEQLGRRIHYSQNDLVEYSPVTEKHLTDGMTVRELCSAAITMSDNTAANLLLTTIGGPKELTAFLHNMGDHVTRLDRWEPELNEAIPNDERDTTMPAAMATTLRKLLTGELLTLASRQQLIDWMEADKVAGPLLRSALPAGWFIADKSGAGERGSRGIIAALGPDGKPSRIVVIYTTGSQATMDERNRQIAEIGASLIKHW

A word on the IC50: it is the concentration that gives 50% inhibition. As to `N#C/C(=C/c1ccc(-c2ccc(S(N)(=O)=O)cc2)o1)c1nc2ccccc2s1`, the IC50 in assay [1] is 22.1 µM (inactive); in [2], 5.09 µM (active).

As for `Cc1ccc(NC(=O)c2cccc3cccnc23)cc1`, the IC50 in [3] was 31.3 µM (active); in [4], 32.5 µM (active); in [5], 8.6 µM (active); in [6] it was 24.3 µM (active).

Take `Oc1ccccc1-c1nc(NCc2ccco2)c2ccccc2n1`: the EC50 in assay [7] and in [8] was > 99 µM (inactive) each time.

For `COc1ccc(N/C=C2/C(=O)N(c3cccc(C)n3)C(=O)c3ccccc32)c(OC)c1`, the EC50 was 55.4 µM (inconclusive) in assay [9]; > 300 µM (not active) in [10]; 14.5 µM (active) in [7]; 8.64 µM (active) in assay [11]; > 99 µM (inactive) in assay [8].
